The source of these data is US11590116B2 (THERAVANCE BIOPHARMA R&D IP, LLC, priority 2019, dated 2023).

Where only a bound is given, the exact number is not on record here.

Assay [1] concerns TGF-β-stimulated SMAD3 phosphorylation in BEAS-2B cells. Description: Cellular ALK5 potency assay, inhibition of TGF-β stimulated pSMAD3 formation in BEAS-2B cells. In kind it is cell-based. Conditions: Homo sapiens; inhibition of TGF-β stimulated pSMAD3 formation, BEAS-2B cells; read-out: BEAS2B pIC50 (converted). Summed up:
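pSMAD3 was quantified by AlphaLISA in BEAS-2B lysates after 10 ng/mL TGF-β (final) for 30 min. Before stimulation, cells received compound for 1 h at 37° C in supplemented HBSS. Values are pIC50, relative to TGF-β-stimulated cells without compound.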

Assay [2] addresses T1, recombinant human ALK5 (TGF-βR1) protein (Homo sapiens, UniProt P36897).
T1 construct: purchased Life Technologies PR9075A
T1 sequence (P36897 34-503): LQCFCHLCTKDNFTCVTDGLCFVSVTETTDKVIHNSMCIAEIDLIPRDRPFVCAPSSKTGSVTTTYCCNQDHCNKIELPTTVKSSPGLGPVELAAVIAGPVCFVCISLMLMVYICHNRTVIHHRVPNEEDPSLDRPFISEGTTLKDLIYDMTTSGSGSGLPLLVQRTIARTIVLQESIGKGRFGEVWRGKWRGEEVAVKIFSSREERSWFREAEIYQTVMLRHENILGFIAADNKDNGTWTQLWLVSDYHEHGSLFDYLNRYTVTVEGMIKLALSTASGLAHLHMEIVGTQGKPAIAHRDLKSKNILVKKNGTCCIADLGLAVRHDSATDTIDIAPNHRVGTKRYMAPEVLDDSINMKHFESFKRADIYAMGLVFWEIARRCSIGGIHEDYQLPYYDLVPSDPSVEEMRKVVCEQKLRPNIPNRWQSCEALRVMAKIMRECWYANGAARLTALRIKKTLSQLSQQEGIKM
Description: Biochemical ALK5 (TGF-βR1) assay to measure pKi (LANCE Ultra ULight kinase assay). Conditions: apparent pKi from pIC50 by Cheng-Prusoff, read-out: ALK5 pKi (converted). Summed up: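 After a 60 min room-temperature preincubation of ALK5 with compound, phosphorylation proceeds 60 min at 37 °C on ATP addition (125 μM as 5× stock). Detection: Eu-labelled phospho-Thr1342 Topo IIα antibody in EDTA buffer, pH 7.0; emission 665 nm.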

Take `Cc1cccc(-c2[nH]cnc2-c2ccc3ncc(N4CCC(N)CC4)cc3c2)n1` [Compound 438, 1-[6-[5-(6-methyl-2-pyridyl)-1H-imidazol-4-yl]-3-quinolyl]piperidin-4-amine]: in assay [1], the IC50 was 25.1 to 158 nM. Also, in assay [2], the Ki is 0.0398 to 0.316 nM.
Taken in the same sequence, the figures for `Cc1cccc(-c2[nH]cnc2-c2ccc3ncc(N4CCN(C)C(CC(=O)O)C4)cc3c2)n1` (stereo not drawn) [Compound 688, 2-[1-methyl-4-[6-[5-(6-methyl-2-pyridyl)-1H-imidazol-4-yl]-3-quinolyl]piperazin-2-yl]acetic acid] were 1580 to 10000 nM and 0.0398 to 0.316 nM.
Consider `CCOC(=O)c1ccnc2ccc(-c3c[nH]nc3-c3cccc(C)n3)nc12` [Compound 800, ethyl 6-[3-(6-methyl-2-pyridyl)-1H-pyrazol-4-yl]-1,5-naphthyridine-4-carboxylate], for which the IC50 in assay [1] is 25.1 to 158 nM. Besides, in assay [2], the Ki is 0.0398 to 0.316 nM.
In the case of `Cc1cccc(-c2[nH]cnc2-c2ccc3ncc(C(=O)O[C@H]4CCN(C)C4)cc3c2)n1` [Compound 724, [(3S)-1-methylpyrrolidin-3-yl] 6-[5-(6-methyl-2-pyridyl)-1H-imidazol-4-yl]quinoline-3-carboxylate], the IC50 in assay [1] was 25.1 to 158 nM. Further, in assay [2], the Ki was 0.398 to 3.16 nM.
Taken in the same sequence, the figures for `Cc1cccc(-c2n[nH]cc2-c2ccc3nccc(CNCCN4CCOCC4)c3n2)n1` [Compound 816, N-[[6-[3-(6-methyl-2-pyridyl)-1H-pyrazol-4-yl]-1,5-naphthyridin-4-yl]methyl]-2-morpholino-ethanamine] were 25.1 to 158 nM and 0.0398 to 0.316 nM.
For `Cc1cccc(-c2[nH]ncc2-c2ccc3ncc(C(=O)O)cc3c2)n1` [Compound 783, 6-[5-(6-methyl-2-pyridyl)-1H-pyrazol-4-yl]quinoline-3-carboxylic Acid] the same measures were 1580 to 10000 nM and 3.98 to 31.6 nM.
Take `Cc1cccc(-c2n[nH]cc2-c2ccc3ncc(N4CC(N5CCOCC5)C4)cc3n2)n1` [Compound 156, 4-[1-[6-[3-(6-methyl-2-pyridyl)-1H-pyrazol-4-yl]-1,5-naphthyridin-3-yl]azetidin-3-yl]morpholine]: the IC50 in assay [1] is less than 20 nM. In addition, the Ki in assay [2] is less than 0.0316 nM.
For `Cc1cccc(-c2n[nH]cc2-c2ccc3ncc(-c4cn(Cc5cccnc5)nn4)cc3n2)n1` [Compound 35, 2-[3-(6-methyl-2-pyridyl)-1H-pyrazol-4-yl]-7-[1-(3-pyridylmethyl)triazol-4-yl]-1,5-naphthyridine] the same measures were less than 20 nM and 0.0398 to 0.316 nM.
For the compound `Cc1cccc(-c2nnn(Cc3ccccc3)c2-c2ccc3ncc(N4CCC(N(C)C)C4)cc3n2)n1` (racemic) [Compound 331, rac-(3S)-1-[6-[3-benzyl-5-(6-methyl-2-pyridyl)triazol-4-yl]-1,5-naphthyridin-3-yl]-N,N-dimethyl-pyrrolidin-3-amine], the IC50 in assay [1] is 200 to 1260 nM. For the same compound, in assay [2], the Ki was 0.0398 to 0.316 nM.
Turning to `Cc1cccc(-c2n[nH]cc2-c2ccc3ncc(NC(=O)CN4CCOCC4)cc3n2)n1` [Compound 353, N-[6-[3-(6-methyl-2-pyridyl)-1H-pyrazol-4-yl]-1,5-naphthyridin-3-yl]-2-morpholino-acetamide], in assay [1], the IC50 is 25.1 to 158 nM. In assay [2], the Ki was 0.0398 to 0.316 nM.
Taken in the same sequence, the figures for `Cc1cccc(-c2n[nH]cc2-c2ccc3ncc(-c4cccnc4)cc3n2)n1` [Compound 595, 2-[3-(6-methyl-2-pyridyl)-1H-pyrazol-4-yl]-7-(3-pyridyl)-1,5-naphthyridine] were less than 20 nM and less than 0.0316 nM.
Regarding `Cc1cccc(-c2n[nH]cc2-c2ccc3ncc(-c4nc(CN5CCN(C(C)C)CC5)co4)cc3n2)n1` [Compound 246, 4-[(4-isopropylpiperazin-1-yl)methyl]-2-[6-[3-(6-methyl-2-pyridyl)-1H-pyrazol-4-yl]-1,5-naphthyridin-3-yl]oxazole], the IC50 in assay [1] is 25.1 to 158 nM. In addition, in assay [2], the Ki was 0.0398 to 0.316 nM.
For `CNCCn1cc(-c2cnc3ccc(-c4c[nH]nc4-c4ccc(F)c(C)n4)cc3c2)cn1` [Compound 634, 2-[4-[6-[3-(5-fluoro-6-methyl-2-pyridyl)-1H-pyrazol-4-yl]-3-quinolyl]pyrazol-1-yl]-N-methyl-ethanamine] the same measures were less than 20 nM and less than 0.0316 nM.
For `Cc1cccc(-c2[nH]cnc2-c2ccc3ncc(-c4ccc(C(=O)O)s4)cc3c2)n1` [Compound 1005, 5-(6-(5-(6-methylpyridin-2-yl)-1H-imidazol-4-yl)quinolin-3-yl)thiophene-2-carboxylic acid] the same measures were 1580 to 10000 nM and 0.0398 to 0.316 nM.
Consider `Cc1cccc(-c2[nH]cnc2-c2ccc3ncc(-c4ccc5c(c4)CC[C@@H]5N)cc3c2)n1` [Compound 1056, (1S)-5-[6-[5-(6-methyl-2-pyridyl)-1H-imidazol-4-yl]-3-quinolyl]indan-1-amine], for which, in assay [1], the IC50 is 25.1 to 158 nM. Also, the Ki in assay [2] is 0.0398 to 0.316 nM.
Taken in the same sequence, the figures for `Cc1cccc(-c2n[nH]cc2-c2ccc3nccc(N)c3n2)n1` [Compound 835, 6-[3-(6-methyl-2-pyridyl)-1H-pyrazol-4-yl]-1,5-naphthyridin-4-amine] were 25.1 to 158 nM and 0.398 to 3.16 nM.
Taken in the same sequence, the figures for `Cc1nc(-c2n[nH]cc2-c2ccc3ncc(NCCN4CCCC4)cc3n2)ccc1F` [Compound 381, 6-[3-(5-fluoro-6-methyl-2-pyridyl)-1H-pyrazol-4-yl]-N-(2-pyrrolidin-1-ylethyl)-1,5-naphthyridin-3-amine] were 25.1 to 158 nM and less than 0.0316 nM.
For `Cc1cccc(-c2n[nH]cc2-c2ccc3ncc(-c4cnc5n4CCCN5)cc3n2)n1` [Compound 655, 2-[3-(6-methyl-2-pyridyl)-1H-pyrazol-4-yl]-7-(5,6,7,8-tetrahydroimidazo[1,2-a]pyrimidin-3-yl)-1,5-naphthyridine] the same measures were 25.1 to 158 nM and 0.0398 to 0.316 nM.
With `Cc1cccc(-c2n[nH]cc2-c2ccc3ncc(Nc4ccc(N5CCNCC5)cn4)cc3c2)n1` [Compound 121, 6-[3-(6-methyl-2-pyridyl)-1H-pyrazol-4-yl]-N-(5-piperazin-1-yl-2-pyridyl)quinolin-3-amine], the IC50 in assay [1] is 25.1 to 158 nM. Further, the Ki in assay [2] was less than 0.0316 nM.
`Cc1cccc(-c2n[nH]cc2-c2ccc3nccc(CN(C)CCN4CCOCC4)c3n2)n1` [Compound 828, N-methyl-N-[[6-[3-(6-methyl-2-pyridyl)-1H-pyrazol-4-yl]-1,5-naphthyridin-4-yl]methyl]-2-morpholino-ethanamine]: in assay [1], the IC50 is 25.1 to 158 nM. Moreover, the Ki in assay [2] was 3.98 to 31.6 nM.
As to `Cc1cccc(-c2[nH]cnc2-c2ccc3ncc(C(=O)OCCN4CC5(CNC5)C4)cc3c2)n1` [Compound 894, 2-(2,6-diazaspiro[3.3]heptan-2-yl)ethyl 6-(5-(6-methylpyridin-2-yl)-1H-imidazol-4-yl)quinoline-3-carboxylate], in assay [1], the IC50 is 200 to 1260 nM. Besides, the Ki in assay [2] was 0.398 to 3.16 nM.
For the compound `CCNC(=O)C1CCN(CCNc2cnc3ccc(-c4nc[nH]c4-c4cccc(C)n4)cc3c2)CC1` [Compound 643, N-ethyl-1-[2-[[6-[5-(6-methyl-2-pyridyl)-1H-imidazol-4-yl]-3-quinolyl]amino]ethyl]piperidine-4-carboxamide], in assay [1], the IC50 was 25.1 to 158 nM. Moreover, in assay [2], the Ki was 0.398 to 3.16 nM.
Taken in the same sequence, the figures for `Cc1cccc(-c2[nH]cnc2-c2ccc3ncc(N4CCN(C)C(CC(=O)OCC5CNC5)C4)cc3c2)n1` (stereo not drawn) [Compound 640, azetidin-3-ylmethyl 2-[1-methyl-4-[6-[5-(6-methyl-2-pyridyl)-1H-imidazol-4-yl]-3-quinolyl]piperazin-2-yl]acetate] were 1580 to 10000 nM and 0.0398 to 0.316 nM.
For `Cc1cccc(-c2n[nH]cc2-c2ccc3nccc(N(C)CC(=O)N4CCOCC4)c3n2)n1` [Compound 836, 2-[methyl-[6-[3-(6-methyl-2-pyridyl)-1H-pyrazol-4-yl]-1,5-naphthyridin-4-yl]amino]-1-morpholino-ethanone], the IC50 in assay [1] is 200 to 1260 nM. Also, in assay [2], the Ki was 3.98 to 31.6 nM.
For `Cc1cccc(-c2[nH]cnc2-c2ccc3ncc(N4CCC(NCCSC5CCOC5=O)C4)cc3c2)n1` (stereo not drawn) [Compound 230, 3-[2-[[1-[6-[5-(6-methyl-2-pyridyl)-1H-imidazol-4-yl]-3-quinolyl]pyrrolidin-3-yl]amino]ethylsulfanyl]tetrahydrofuran-2-one] the same measures were 25.1 to 158 nM and less than 0.0316 nM.
Taken in the same sequence, the figures for `Cc1cccc(-c2[nH]cnc2-c2ccc3ncc(N4CC[C@@H](N)C4)cc3c2)n1` [Compound 13, (3R)-1-[6-[5-(6-methyl-2-pyridyl)-1H-imidazol-4-yl]-3-quinolyl]pyrrolidin-3-amine] were less than 20 nM and 0.0398 to 0.316 nM.
On to `Cc1cccc(-c2[nH]ncc2-c2ccc3ncc(C(=O)N(C)C)cc3n2)n1` [Compound 85, N,N-dimethyl-6-[5-(6-methyl-2-pyridyl)-1H-pyrazol-4-yl]-1,5-naphthyridine-3-carboxamide], for which, in assay [1], the IC50 was 200 to 1260 nM. Further, in assay [2], the Ki is 3.98 to 31.6 nM.
